# Tested on: patients with evidence of coronary artery disease
# Assay: dal-PLAQUE-2: change in carotid intima-media thickness (B-mode ultrasound) by ADCY9 genotype
# Assay type: in vivo, human
# Excerpt: The dal-PLAQUE-2 study (Tardif J C et al, Circulation Cardiovascular imaging 2011; 4:319-33) was a phase 3b multicenter, double-blind, randomized, placebo-controlled, parallel group trial designed to evaluate the effect of dalcetrapib on atherosclerotic disease progression in patients with evidence of coronary artery disease and carotid intima media thickness of at least 0.65 mm in the far wall of the common carotid arteries, as assessed by B-mode ultrasonography. A total of 931 patients were randomized to receive dalcetrapib 600 mg daily or matching placebo with intended treatment duration of 24 months. However, the trial was terminated prematurely concurrent with the termination of dal OUTCOMES (the latter due to futility). Patients continued study medication until they returned for follow-up carotid imaging at 12 months. Carotid B-mode ultrasound recordings at baseline, month 6, and month 12 were analyzed centrally at the core laboratory of the Montreal Heart Institute. Intima-media thickness (IMT) was analyzed on the far wall of the common carotid arteries. A segment of 10 mm in length of the common carotid artery was analyzed on serial examinations using an automated edge detection software (Carotid Analyzer, Medical Imaging Applications, Coralville, Iowa). Among the 411 participants in the dal-PLAQUE-2 trial who consented to the genetic study, 386 had imaging measures at baseline, 6 months and 12 months (194 and 192 in the dalcetrapib and placebo arms respectively). DNA was extracted from whole blood. The research protocols were approved by the relevant institutional review boards or ethics committees and all human participants gave written informed consent.
# All acquired carotid ultrasound recordings were analyzed at the core laboratory of the Montreal Heart Institute by experienced technicians supervised by a physician. Images were required to meet quality and inclusion and exclusion criteria for eligibility prior to random assignment to study treatment. The methods for carotid intima-media thickness analysis included side-by-side viewing of baseline and follow-up studies.
# Carotid arterial wall segments were assessed in a longitudinal view, perpendicular to the ultrasound beam, with a horizontal display of the arterial image in order to view the interfaces between blood and vascular structures on the longest possible segment. The localization of the end of the common carotid artery was used as the landmark in repositioning and analyzing comparative length of segments in baseline and follow-up studies. Intima-media thickness was analyzed on the far wall of the right and left common carotid arteries, to reduce variability of measurements. The average of the mean intima-media thickness values of the right and left common carotid arteries was used. A matched segment of 10 mm in length of the common carotid artery was analyzed on serial examinations (baseline, 6 months and 12 months), starting 5 mm proximal to the carotid bifurcation. The edge detection software Carotid Analyzer (Medical Imaging Applications LLC, Coralville, Iowa) was used to analyze intima-media thickness using the automated option. Two sets of carotid artery borders were identified: First, the media-adventitia borders were determined and verified by the reader. When required, their locations were semi-automatically modified to the correct location. When these borders were approved, the lumen-intima boundaries were automatically detected using the media-adventitia borders for guidance. Frames from looped sequences of intima-media thickness were selected for reading, and poor quality outlier frames were removed from the analysis when required.
# For the dal-Plaque-2 population, mixed regression models for repeated measures analysis were tested in SAS software. The dal-Plaque-2 tested endpoint was the mean of IMT measures of common carotid arteries at the 6-month and the 12-month visits, using the baseline measure as covariate. […]
compound,measurement,setting,value
"CCC(CC)CC1(C(=O)Nc2ccccc2SC(=O)C(C)C)CCCCC1 [dalcetrapib, thioisobutyric acid S-(2-{[1-(2-ethyl-butyl)-cyclohexanecarbonyl]-amino}-phenyl) ester]","Change from baseline in carotid intima-media thickness, Mean","rs1967309, heterozygotes, M12",−0.001 mm
same,"Change from baseline in carotid intima-media thickness, Mean","rs1967309, homozygotes for major allele, M06",0.006 mm
same,"Change from baseline in carotid intima-media thickness, Mean","rs1967309, homozygotes for major allele, M12",0.005 mm
same,"Change from baseline in carotid intima-media thickness, Mean","rs1967309, homozygotes for minor allele, M12",−0.021 mm
same,change in IMT after 12 months of treatment,rs1967309 AA homozygotes,−0.021±0.083 mm
same,change in IMT after 12 months of treatment,rs1967309 GG homozygotes,+0.005±0.042 mm
same,change in IMT after 12 months of treatment,rs1967309 heterozygotes,−0.001±0.048 mm
same,"Change from baseline in carotid intima-media thickness, Mean","rs2238448, heterozygotes, M06",−0.003 mm
same,"Change from baseline in carotid intima-media thickness, Mean","rs2238448, heterozygotes, M12",0.000 mm
same,"Change from baseline in carotid intima-media thickness, Mean","rs2238448, homozygotes for major allele, M06",0.011 mm
same,"Change from baseline in carotid intima-media thickness, Mean","rs2238448, homozygotes for major allele, M12",0.009 mm
same,"Change from baseline in carotid intima-media thickness, Mean","rs2238448, homozygotes for minor allele, M06",−0.010 mm
same,"Change from baseline in carotid intima-media thickness, Mean","rs2238448, homozygotes for minor allele, M12",−0.027 mm
same,change in IMT after 12 months of treatment,rs2238448 CC (common allele homozygotes),+0.009±0.038 mm
same,change in IMT after 12 months of treatment,rs2238448 TT (minor allele homozygotes),−0.027±0.079 mm
same,change in IMT after 12 months of treatment,rs2238448 heterozygotes,0.000±0.048 mm
same,"Change from baseline in carotid intima-media thickness, Mean","rs2239310, heterozygotes, M06",−0.004 mm
same,"Change from baseline in carotid intima-media thickness, Mean","rs2239310, heterozygotes, M12",−0.003 mm
same,"Change from baseline in carotid intima-media thickness, Mean","rs2239310, homozygotes for major allele, M06",0.004 mm
same,"Change from baseline in carotid intima-media thickness, Mean","rs2239310, homozygotes for major allele, M12",0.001 mm
same,"Change from baseline in carotid intima-media thickness, Mean","rs2239310, homozygotes for minor allele, M06",−0.001 mm
same,"Change from baseline in carotid intima-media thickness, Mean","rs2239310, homozygotes for minor allele, M12",−0.002 mm
same,"Change from baseline in carotid intima-media thickness, Mean","rs2283497, heterozygotes, M06",−0.001 mm
same,"Change from baseline in carotid intima-media thickness, Mean","rs2283497, heterozygotes, M12",0.005 mm
same,"Change from baseline in carotid intima-media thickness, Mean","rs2283497, homozygotes for minor allele, M06",−0.005 mm
same,"Change from baseline in carotid intima-media thickness, Mean","rs2283497, homozygotes for minor allele, M12",−0.006 mm
same,"Change from baseline in carotid intima-media thickness, Mean","rs2531967, heterozygotes, M06",−0.008 mm
same,"Change from baseline in carotid intima-media thickness, Mean","rs2531967, heterozygotes, M12",−0.006 mm
same,"Change from baseline in carotid intima-media thickness, Mean","rs2531967, homozygotes for minor allele, M06",−0.007 mm
same,"Change from baseline in carotid intima-media thickness, Mean","rs2531967, homozygotes for minor allele, M12",−0.031 mm
same,"Change from baseline in carotid intima-media thickness, Mean","rs2531971, heterozygotes, M06",−0.002 mm
same,"Change from baseline in carotid intima-media thickness, Mean","rs2531971, heterozygotes, M12",0.002 mm
same,"Change from baseline in carotid intima-media thickness, Mean","rs2531971, homozygotes for major allele, M06",0.008 mm
same,"Change from baseline in carotid intima-media thickness, Mean","rs2531971, homozygotes for major allele, M12",−0.002 mm
same,"Change from baseline in carotid intima-media thickness, Mean","rs2531971, homozygotes for minor allele, M06",−0.010 mm
same,"Change from baseline in carotid intima-media thickness, Mean","rs2531971, homozygotes for minor allele, M12",−0.016 mm
same,"Change from baseline in carotid intima-media thickness, Mean","rs3730119, heterozygotes, M06",−0.002 mm
same,"Change from baseline in carotid intima-media thickness, Mean","rs3730119, heterozygotes, M12",0.004 mm
same,"Change from baseline in carotid intima-media thickness, Mean","rs3730119, homozygotes for minor allele, M06",0.006 mm
same,"Change from baseline in carotid intima-media thickness, Mean","rs3730119, homozygotes for minor allele, M12",−0.028 mm
same,"Change from baseline in carotid intima-media thickness, Mean","rs4786454, heterozygotes, M06",−0.007 mm
same,"Change from baseline in carotid intima-media thickness, Mean","rs4786454, heterozygotes, M12",−0.005 mm
same,"Change from baseline in carotid intima-media thickness, Mean","rs4786454, homozygotes for minor allele, M06",−0.020 mm
same,"Change from baseline in carotid intima-media thickness, Mean","rs4786454, homozygotes for minor allele, M12",−0.049 mm
same,"Change from baseline in carotid intima-media thickness, Mean","rs8049452, heterozygotes, M06",−0.002 mm
same,"Change from baseline in carotid intima-media thickness, Mean","rs8049452, heterozygotes, M12",0.003 mm
same,"Change from baseline in carotid intima-media thickness, Mean","rs8049452, homozygotes for major allele, M06",−0.008 mm
same,"Change from baseline in carotid intima-media thickness, Mean","rs8049452, homozygotes for major allele, M12",−0.013 mm
same,"Change from baseline in carotid intima-media thickness, Mean","rs8049452, homozygotes for minor allele, M06",0.020 mm
same,"Change from baseline in carotid intima-media thickness, Mean","rs8049452, homozygotes for minor allele, M12",0.006 mm
same,"Change from baseline in carotid intima-media thickness, Mean","rs8061182, heterozygotes, M06",0.000 mm
same,"Change from baseline in carotid intima-media thickness, Mean","rs8061182, heterozygotes, M12",0.007 mm
same,"Change from baseline in carotid intima-media thickness, Mean","rs8061182, homozygotes for minor allele, M06",0.016 mm
